Data on three molecules can be found in patent US9040240B2, “Arsenic assay using ELISA” (UNIVERSITE DE LORRAINE, priority 2011, dated 2015).

For one data set, the system named is human. The settings on record: ingestion; cited from earlier work.
Data set [1] has as its target T1, ArsRFlagN-6His protein (SEQ ID NO. 22) bound to Pars2Lbio/Pars2R DNA fragment (Escherichia coli, UniProt P37309).
T1 construct: made in house; host or cells: Escherichia coli C43(DE3) pLysS, vector pET28b(+)
T1 sequence (P37309 with tags, fused parts or gaps): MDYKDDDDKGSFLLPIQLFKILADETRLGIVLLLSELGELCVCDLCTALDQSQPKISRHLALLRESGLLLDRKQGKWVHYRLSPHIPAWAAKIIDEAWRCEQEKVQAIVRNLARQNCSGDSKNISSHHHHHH
Description: ELISA arsenic assay: ArsRFlagN-6His protein remaining bound to Pars2Lbio/Pars2R DNA fragment on streptavidin microplate, luminescence (CDP*). The class given is binding. To be noted: 60 min 25° C. The procedure: In this example, the used DNA fragment containing the binding site of the ArsRFlagN-6His protein (SEQ ID NO. 22) is composed of a fragment of 41 biotinylated bases in position 5′ (SEQ ID NO. 25, named “Pars2Lbio”) hybridized to a further DNA fragment with 33 bases (SEQ ID NO 26, named “Pars2R”). The sequences Pars2Lbio and Pars2R were obtained by chemical synthesis (Eurofins MWG Operon, Ebersberg, Germany).
The biotinylated oligonucleotide (“Pars2Lbio”) was used at a concentration of 1 to 10 nM. The complementary oligonucleotide (“Pars2R”) was added in excess to enhance formation of the double strand. It was diluted in PBST buffer (between 1 and 10 nM, ideally 5, for the biotinylated oligonucleotide; between 4 and 40 nM, ideally 20, for the complementary oligonucleotide). The mixture was heated for one minute at 65° C. to eliminate any secondary structures that could have been formed by each oligonucleotide.
A “NUNC Immobilizer (trademark) Streptavidin” microplate (Nunc Streptavidin Microplate, Dominique Dutscher (ref. 056212), Brumath, France) with 96 wells with a useful volume of 100 μl each and whose surface is functionalized with streptavidin, was used. The wells in the microplate were washed three times using of 300 μl of PBST solution.
The DNA solution was then distributed in the microplate wells (100 μl per well). The microplate was placed at 25° C. for one hour to enable binding of the DNA fragments thanks to the biotin-streptavidin affinity.
(§1) The unbound DNA was eliminated by three successive washes using 300 μl of PBST per well.
100 μl of PBSTLE solution were added in the microplate wells. The microplate was incubated for 60 minutes at 25° C. to enable non-specific binding of the milk proteins on the bottom and the walls of the well. This step limits non-specific binding of the ArsRFlagN-6His protein (SEQ ID NO. 22) and the conjugated anti-Flag antibodies (Ref. A9469, Sigma Aldrich, Saint-Quentin Fallavier, France). The unbound proteins were eliminated by three successive washes of the well using 300 μl of PBST buffer.
A solution of ArsRFlagN-6His protein (SEQ ID NO. 22) at 1 μg/ml was prepared in PBST buffer. 100 μl of this solution were added in each of the assay wells. The microplate was incubated for 60 minutes at 25° C., to enable the ArsRFlagN-6His proteins to bind with the DNA in the wells.
(§2) The unbound proteins were eliminated by three successive washes using 300 μl of PBST per well.
The DNA fragment defined in example 6 and containing the ArsR protein binding site was bound to a support in the same way as presented in example 6 above.
A solution containing the ArsRFlagN-6His protein (SEQ ID NO. 22) was added according to the protocol presented in example 7 above, to enable the protein to bind with the DNA.
5 dilutions of arsenic solution, at 0 μg/L, 2 μg/L, 3 μg/L, 4 μg/L, and 5 μg/L respectively, were prepared in PBS to provide a control sample range. 100 μl of each of these dilutions were added respectively in a microplate well.
The microplate was incubated for 60 minutes at 25° C., to enable the arsenic to bind with the ArsRFlagN-6His proteins (SEQ ID NO. 22).
The unbound ArsRFlagN-6His proteins (SEQ ID NO. 22) were eliminated by three successive washed using 300 μl of PBST per well.
100 μl of a solution of anti-Flag antibody (Ref. A9469, Sigma Aldrich, Saint-Quentin Fallavier, France), conjugated with alkaline phosphatase, were added in each wells. The antibody was previously diluted in PBST in compliance with the supplier's recommendations (dilution factor 1/500). The microplate was incubated for 60 minutes at 25° C. to enable the antibody to bind with the ArsRFlagN-6His proteins.
The unbound anti-Flag antibodies were eliminated by three successive washes using 300 μl of PBST per well.
A CDP* solution at 0.25 mM was prepared in buffer 1. 100 μl of CDP* solution were placed in the different assay wells. The light emitted was immediately measured using a luminometer (LumiStar, BMG Lab Technologies).

Data set [2] has as its target T2, ArsRFlagN protein (SEQ ID NO. 9) bound to Opars1 DNA fragment (Escherichia coli, UniProt P37309).
T2 construct: made in house; host or cells: Escherichia coli M15[pREP4] with plasmid pQEarsRFlagN (pQE70)
T2 sequence (P37309 with tags, fused parts or gaps): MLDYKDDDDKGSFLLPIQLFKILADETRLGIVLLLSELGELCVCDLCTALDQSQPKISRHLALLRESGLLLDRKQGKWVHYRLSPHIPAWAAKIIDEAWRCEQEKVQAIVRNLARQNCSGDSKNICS
Description: ELISA arsenic assay: ArsRFlagN protein remaining bound to Opars1 DNA fragment on streptavidin microplate, luminescence (CDP*). The settings on record: 60 min 25° C. The class given is binding, Escherichia coli K12 strain MG1655. The method, then: Different dilutions of arsenic solution to be assayed are added (4), the arsenic binds to the ArsR protein (5) that is separated from its site. These proteins are eliminated by washing. Only the ArsR proteins that have not bound arsenic remain attached to the DNA (6).
A specific antibody of the Flag sequence is added (7). That antibody binds the Flag sequence of the ArsR protein bound to the DNA. The antibody is coupled with an enzyme, alkaline phosphatase for example. Any antibodies not bound are eliminated by washing.
A substrate of the enzyme is added in the wells. Light is emitted when the substrate is cleaved by the enzyme (8). […] The quantity of arsenic contained in the sample is obtained by comparing the results with a standard curve.
In this example, the used DNA fragment containing the binding site of the ArsR protein is composed of 254 base pairs (SEQ ID NO. 1, called “Opars1” herein). Opars1 sequence has been obtained by PCR (DNA polymerase chain reaction) amplification using the primers Opars1L (SEQ ID NO. 2) and Opars1R (SEQ ID NO. 3). The chromosomal DNA of the Escherichia coli K12 bacteria strain MG1655 (ATCC 47076) was used as a template for the PCR amplification. Biotin was added on the nucleotide at position 5′ during synthesis of the Opars1L primer. Biotinylated Opars1 sequences, that is to say sequences with a biotin in position 5′, were thus obtained.
A “NUNC Immobilizer (trademark) Streptavidin” microplate (Nunc Streptavidin Microplate, Dominique Dutscher (ref. 056212), Brumath, France) with 96 wells with a useful volume of 100 μl each and whose surface is functionalized with streptavidin, was used. The wells of this microplate were washed three times using 300 μl of PBST solution.
A solution containing Opars1 DNA fragments was diluted in PBS solution to obtain a DNA concentration of 0.2 μM. 100 μl of that solution were placed in each well of the “NUNC Immobilizer (trademark) Streptavidin” microplate. The microplate was incubated for 60 minutes at 25° C., to enable binding of the DNA in the wells.
as §1
The ArsR protein of sequence SEQ ID NO. 4 corresponds to the protein that regulates the Ars operon of Escherichia coli K12 strain MG1655. The arsR gene of sequence SEQ ID NO. 5 coding that protein was amplified from the chromosomal DNA of that strain using the primers arsRR (SEQ ID NO. 6) and arsRL (SEQ ID NO. 7), and cloned in expression vector pQE70 (Qiagen) according to the protocol described in the document “The QiaExpressionist: A handbook for high-level expression and purification of 6×His-tagged proteins. June 2003. Fifth ed., Qiagen” [12]. A Flag sequence (SEQ ID NO. 10) was inserted in the N-terminal region of the ArsR protein and named “ArsRFlagN” (SEQ ID NO. 9). The Flag sequence is recognized by anti-Flag antibodies (Ref. A9469, Sigma Aldrich, Saint-Quentin Fallavier, France). This addition will allow detecting and assaying the ArsR protein more efficiently.
The 200 μg of ArsRFlagN proteins produced were diluted to 1/100 in PBST buffer. 100 μl of that solution were added in each of the assay wells. The microplate was incubated for 60 minutes at 25° C., to enable the attachment of the ArsRFlagN proteins on the DNA in the wells. The amount of ArsRFlagN proteins added per well was estimated at about 0.4 μg.
as §2
A DNA fragment containing the ArsR protein binding site was attached to a support in the same way as that set out in example 2 above.
A solution containing the ArsR protein was added according to the protocol presented in example 3 above, to enable the protein to bind with the DNA.
6 dilutions of arsenic solution, at 0.375 μg/L, 0.750 μg/L, 1.875 μg/L, 7.500 μg/L, 18.750 μg/L and 37.500 μg/L respectively, were prepared in PBS to provide a standard range. […]

A short description of data set [3]: Storage stability of purified ArsRFlagN-6His protein. The class given is physicochemical. The method, then:
The ArsRFlagN-6His protein (SEQ ID NO. 22) was purified by affinity chromatography (IMAC). An Ni-NTA column was balanced with PBS buffer+10 mM of imidazole. The clear lysate was deposited on the column. The buffer was eluted by gravity. The column was firstly washed using PBS buffer+10 mM of imidazole (10 column volumes) and secondly using PBS buffer+20 mM of imidazole. The ArsR protein was eluted using an imidazole gradient in PBS buffer (PBS buffer with increasing concentrations of imidazole: 30 to 400 mM). The fractions collected were analysed (SDS-PAGE gel). Fractions that contained the greatest quantity of protein were stored at 4° C. (3 ml of PBS buffer, imidazole 300 mM, pH 7.5). ArsR protein concentration was of 1 mg/ml. The protein is stable for 15 days at 4° C. It can be stored for several weeks at lower temperatures (−20 and −80° C.) in the presence of a cryoprotector (glycerol at 50%, volume/volume).

On to `[AsH3]` [arsenic], for which, in the data set on human, the “amount of arsenic ingested causing acute intoxication” value is 1 to 2 mg/kg/day.
Consider arsenite [AsIII], for which the “Luminescence value (L)” value in data set [1] (AsIII 0.027 μM (2 μg/L)) was 4,710; in data set [1] (AsIII 0.040 μM (3 μg/L)) it was 4,457; in data set [1] (AsIII 0.053 μM (4 μg/L)) it was 4,061; in data set [1] (AsIII 0.067 μM (5 μg/L)), 3,906; in data set [2] (AsIII 0.005 μM (0.375 μg/L)), 6,426; in data set [2] (AsIII 0.01 μM (0.750 μg/L)), 5,808. In addition, the “Luminescence value (L)” value in data set [2] (AsIII 0.025 μM (1.875 μg/L)) is on record as 5,023; in data set [2] (AsIII 0.100 μM (7.500 μg/L)) it was 4,422; in data set [2] (AsIII 0.250 μM (18.750 μg/L)), 3,776; in data set [2] (AsIII 0.500 μM (37.500 μg/L)), 2,831. Further, the logL amounted to 3.6730 in data set [1] (AsIII 0.027 μM (2 μg/L)); 3.6490 in data set [1] (AsIII 0.040 μM (3 μg/L)); 3.6086 in data set [1] (AsIII 0.053 μM (4 μg/L)); 3.5917 in data set [1] (AsIII 0.067 μM (5 μg/L)); 3.81 in data set [2] (AsIII 0.005 μM (0.375 μg/L)); 3.76 in data set [2] (AsIII 0.01 μM (0.750 μg/L)). Also, the logL in data set [2] (AsIII 0.025 μM (1.875 μg/L)) is reported as 3.70; in data set [2] (AsIII 0.100 μM (7.500 μg/L)) it was 3.65; in data set [2] (AsIII 0.250 μM (18.750 μg/L)), 3.58; in data set [2] (AsIII 0.500 μM (37.500 μg/L)) it was 3.45.

B1: ArsRFlagN-6His protein: recombinant E. coli ArsR regulator protein with N-terminal Flag peptide and polyhistidine tail (protein)
chain: T1 sequence (P37309 with tags, fused parts or gaps)
modifications: ArsRFlagN-6His protein
notes: recombinant E. coli ArsR regulator protein with N-terminal Flag peptide and polyhistidine tail
As to B1, in data set [3] (4° C., PBS buffer, imidazole 300 mM, pH 7.5, 1 mg/ml), the “time the protein is stable” value is listed as 15 days. Also, the “time the protein can be stored” value in data set [3] (−20 and −80° C., in the presence of glycerol at 50% (volume/volume)) is recorded as “several weeks”.
